According to patent publication US6432416B1, “Anti-microbial power coating” (Dupont Powder Coatings USA, Inc., priority 1997, dated 2002):

Columns and labels:
[1] = tested on: Staphylococcus aureus, Escherichia coli, and Salmonella choleraesuis; assay: AATCC Test Method 147 at higher anti-microbial concentration (zones of inhibition)
[2] = tested on: fungus spores of Aspergillus niger, Penicillium funiculosum, and Aerobasidium pullulans; assay: Shorter-term fungal test per ASTM D 5588-94; assay type: cell-based; conditions: after 72 hours of incubation
Description: Next, steel coupons were coated with the anti-microbial formulations listed above and exposed per ASTM D 5588-94 to a mixture containing the fungus spores of Aspergillus niger, Penicillium funiculosum, and Aerobasidium pullulans. After the coupons were washed with a 70 percent ethanol/water solution, they were placed in a sterile Petri dish, inoculated, and incubated at 28° C. for the duration of the test. At appropriate intervals, each sample was checked for the presence of viable microorganisms by streaking each sample with a sterile cotton swab, then streaking the swab onto Potato Dextrose Agar (adjusted to pH 3.5 for fungi). These plates were also incubated at 28° C. […] The presence of microbial growth would indicate non-sterility, i.e., the sample contained viable microbial contamination.

[3] = tested on: Aspergillus niger (ATCC 6275), Penicillium funiculosum (ATCC 11797), and Aureobasidium pullulans (ATCC 9348); assay: Resistance to fungal growth, ASTM D5590-95, mixed spore suspension; conditions: concentration of 1 percent; four weeks of exposure to fungus spores
Description: Resistance to fungal growth was tested generally in accordance with ASTM D5590-95. […] Samples were aseptically placed onto a modified malt agar plate and then each sample was inoculated.
The same samples were also exposed to fungus spores for a period of four weeks.

[4] = tested on: Pseudomonas aeruginosa, Staphylococcus aureus, and Escherichia coli; assay: Shorter-term bacterial test per ASTM D 5588-94; assay type: cell-based; conditions: after 72 hours of incubation; 0.1 percent and 1 percent formulations
Description: Steel coupons were coated with the Fungitrol® 11, Butyl Parabens®, and Amerstat® 300 anti-microbial formulations, at 0.1 percent and 1 percent, and exposed as per ASTM D 5588-94 to a mixture containing the bacteria Pseudomonas aeruginosa, Staphylococcus aureus, and Escherichia coli. After the coupons were washed with a 70 percent ethanol/water solution, they were placed in a sterile Petri dish, inoculated, and incubated at 32° C. for the duration of the test.
At appropriate intervals, each sample was checked for the presence of viable microorganisms by streaking each sample with a sterile cotton swab, then streaking the swab onto Tryptic Soy Agar. The plates were incubated for 48 hours at 32° C. […] The presence of microbial growth would indicate non-sterility, i.e., the sample contained viable microbial contamination.
The samples were examined for low levels of bacterial contamination by transferring an aliquot with a sterile cotton swab to a Tryptic Soy Broth in culture tubes. The tubes were incubated for 24 hours at 32° C., streaked onto Tryptic Soy Agar plates and the plates were incubated for 24 to 48 hours at 32° C.

[5] = tested on: Pseudomonas aeruginosa, Escherichia coli, and Salmonella typhinurium; assay: Long-term anti-microbial activity test of cured powder coatings (bacterial coverage rating); conditions: cured epoxy powder coating; for AVERAGE BACTERIAL COVERAGE: growth rating 0 (good) to 4 (poor), averaged over the different samples (0.1 and 1 percent additive, different thickness), after four weeks; for bacterial coverage / activity relative to the control: long-term test
Description: A long-term anti-microbial activity test was carried out to determine if selected anti-microbial agents maintain their anti-microbial activity after being incorporated into powder coatings and cured.
Six anti-microbial agents were selected for experimentation. […] For each powder coating formulation, one of the six anti-microbial agents was added at concentrations of 0.1 percent and 1 percent of the total resin weight.
Samples containing one of the six additives at the two concentrations in the coating matrix were prepared. […] Controls containing the coating formulation with no additive and controls containing only the black silicone resin used for edge coverage were included.
The target bacterial organisms were Pseudomonas aeruginosa, Escherichia coli, and Salmonella typhinurium. Five groups of samples were prepared. […] Each of the following samples was prepared with an additive concentration of 1 percent of the resin by weight.
The results were then rated on a scale of “0” (good performance) to “4” (poor performance) based on the number of colony-forming units observed. The growth ratings, which were averaged over the different samples, are based on the following numerical rating system:
0=No contamination (sterile).
1=Trace of contamination (1-9 colonies per “streak-inch”).
2=Light contamination (10-99 colonies per “streak-inch”).
3=Moderate contamination (greater than 100 colonies, but still distinguishable).
4=Heavy contamination (continuous smear of growth).

[6] = 5 percent agent in powder coating

Row | Structure (SMILES) | fungal growth on coating surface [3] | AVERAGE BACTERIAL COVERAGE [5] | bacterial coverage / activity relative to the control [5] | further results
1 | O=[N+]([O-])C(Br)(CO)CO [Canguard® 409, 2-bromo-2-nitropropane-1,3-diol] |  |  |  | zones of inhibition [1, 6]: Significant zones of inhibition; inhibiting the growth of Escherichia coli and Salmonella choleraesuis, compared with the triclosan formulation [1]: performed better than the triclosan formulation
2 | CCCCOC(=O)c1ccc(O)cc1 [Butyl Parabens®, butyl-p-hydroxy-benzoate] | free of visible fungal growth | 2.6 ± 1.3 |  | growth on coated samples exposed to fungus spores [2]: free of (or showed very low levels of) bacterial growth; bacterial growth on coated samples [4]: free of bacterial growth and were actually sterile
3 | N#CC(Br)(Br)C(N)=O [Amerstat® 300, dibromocyanoacetamide] | a very small amount of fungal growth | 1.6 ± 1.5 | significantly improved bacterial coverage | bacterial growth on coated samples [4]: did not show conclusive results
4 | CN1CSC(=S)N(C)C1 [Nuosept® S, 3,5-dimethyltetrahydro-1,3,5-2H-thiazine-2-thione] | did not show conclusive fungal resistance | 3.6 ± 0.5 | did not appear to improve the activity relative to the control | zones of inhibition [1, 6]: Significant zones of inhibition; zones of inhibition ([1]; 10 percent agent in powder coating): Significant zones of inhibition; inhibiting the growth of Escherichia coli and Salmonella choleraesuis, compared with the triclosan formulation [1]: performed as well as or better than the triclosan formulation
5 | N#Cc1c(Cl)c(Cl)c(Cl)c(C#N)c1Cl [Nuocide® 960, tetrachloroisophthalonitrile] | free of visible fungal growth | 3.0 ± 1.3 |  | 
6 | CCCOC(=O)c1ccc(O)cc1 [Propyl Parabens®] | free of visible fungal growth | 3.7 ± 0.5 | did not appear to improve the activity relative to the control | 
7 | Oc1cc(Cl)ccc1Oc1ccc(Cl)cc1Cl [Irgasan® DP 400, 5-chloro-2-(2,4-dichloro-phenoxy)phenol] |  |  |  | zones of inhibition ([1]; 3 percent agent in powder coating): Significant zones of inhibition
